According to patent US6608086B2, “Dihydropyridines and new uses thereof” (Synaptic Pharmaceutical Corporation, priority 1993, dated 2003):
Counter-ions that a name gives are not always drawn.

Target: T1, L-type calcium channel (Rattus norvegicus, UniProt P22002)
T1 construct: membrane fragments of rat cardiac muscle; from tissue; host or cells: rat cardiac muscle membranes
Experiment: Competition binding of [3H]nitrendipine to membrane fragments of rat cardiac muscle
Conditions: [3H]nitrendipine, rat cardiac muscle membrane fragments, L-type calcium channel; read-out: pKi Ca (converted)

T1 sequence (P22002 whole entry, other chains not shown, the tested form may be a part): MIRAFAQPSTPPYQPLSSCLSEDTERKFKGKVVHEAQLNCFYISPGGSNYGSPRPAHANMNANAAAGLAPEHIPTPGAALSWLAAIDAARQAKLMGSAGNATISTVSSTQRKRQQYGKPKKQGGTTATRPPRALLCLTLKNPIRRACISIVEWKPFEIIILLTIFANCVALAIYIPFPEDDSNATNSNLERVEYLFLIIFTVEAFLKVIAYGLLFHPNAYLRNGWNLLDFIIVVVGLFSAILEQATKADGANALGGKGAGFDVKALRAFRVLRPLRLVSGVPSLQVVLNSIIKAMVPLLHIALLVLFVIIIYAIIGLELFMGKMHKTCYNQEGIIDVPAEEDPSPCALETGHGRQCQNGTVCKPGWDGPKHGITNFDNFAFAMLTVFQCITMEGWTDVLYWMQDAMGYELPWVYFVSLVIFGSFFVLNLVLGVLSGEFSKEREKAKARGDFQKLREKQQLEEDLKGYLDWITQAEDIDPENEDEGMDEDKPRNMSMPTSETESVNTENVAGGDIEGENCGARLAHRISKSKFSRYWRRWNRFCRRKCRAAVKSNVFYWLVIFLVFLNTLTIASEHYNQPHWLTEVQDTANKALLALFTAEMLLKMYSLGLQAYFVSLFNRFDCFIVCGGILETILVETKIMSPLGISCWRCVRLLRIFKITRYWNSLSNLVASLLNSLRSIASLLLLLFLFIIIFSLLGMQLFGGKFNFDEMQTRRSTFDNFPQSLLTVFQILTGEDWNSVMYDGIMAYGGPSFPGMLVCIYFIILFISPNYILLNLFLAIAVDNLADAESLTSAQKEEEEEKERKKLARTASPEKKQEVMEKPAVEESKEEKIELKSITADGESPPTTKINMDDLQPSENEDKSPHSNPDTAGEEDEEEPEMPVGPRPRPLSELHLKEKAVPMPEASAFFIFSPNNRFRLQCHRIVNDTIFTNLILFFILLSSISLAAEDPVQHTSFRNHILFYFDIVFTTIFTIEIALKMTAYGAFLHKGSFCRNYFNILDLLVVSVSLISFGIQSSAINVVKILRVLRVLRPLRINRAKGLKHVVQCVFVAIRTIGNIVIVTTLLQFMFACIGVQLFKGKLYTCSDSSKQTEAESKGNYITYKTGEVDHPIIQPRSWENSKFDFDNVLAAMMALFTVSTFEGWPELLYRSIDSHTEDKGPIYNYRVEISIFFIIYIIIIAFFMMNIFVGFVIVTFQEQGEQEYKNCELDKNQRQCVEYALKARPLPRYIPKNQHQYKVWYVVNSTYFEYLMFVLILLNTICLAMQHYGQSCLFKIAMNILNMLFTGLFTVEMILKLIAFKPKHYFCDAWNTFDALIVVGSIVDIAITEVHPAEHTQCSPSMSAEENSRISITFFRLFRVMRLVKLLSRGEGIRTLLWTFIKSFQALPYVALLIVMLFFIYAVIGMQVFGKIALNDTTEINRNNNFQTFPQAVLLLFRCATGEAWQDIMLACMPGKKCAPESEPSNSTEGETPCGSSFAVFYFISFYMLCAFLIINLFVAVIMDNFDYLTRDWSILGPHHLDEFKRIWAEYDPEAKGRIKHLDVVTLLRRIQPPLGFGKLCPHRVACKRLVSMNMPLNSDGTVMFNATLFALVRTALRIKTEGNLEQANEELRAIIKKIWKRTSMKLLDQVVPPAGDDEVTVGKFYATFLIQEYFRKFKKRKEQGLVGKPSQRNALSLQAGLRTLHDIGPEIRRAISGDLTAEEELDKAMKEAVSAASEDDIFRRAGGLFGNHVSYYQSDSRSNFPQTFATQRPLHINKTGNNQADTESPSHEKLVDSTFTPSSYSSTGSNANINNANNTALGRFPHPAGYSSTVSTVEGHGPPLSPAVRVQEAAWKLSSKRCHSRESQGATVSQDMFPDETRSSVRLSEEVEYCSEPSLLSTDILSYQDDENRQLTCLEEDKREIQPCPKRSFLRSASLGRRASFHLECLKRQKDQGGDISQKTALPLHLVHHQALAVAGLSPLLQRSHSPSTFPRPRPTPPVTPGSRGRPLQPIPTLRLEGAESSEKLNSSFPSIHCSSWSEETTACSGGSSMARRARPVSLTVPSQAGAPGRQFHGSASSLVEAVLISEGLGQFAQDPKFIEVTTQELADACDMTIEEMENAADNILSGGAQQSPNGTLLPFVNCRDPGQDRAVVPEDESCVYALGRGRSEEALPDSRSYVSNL
T1 sequence (P54290 25-944 partner limits assumed, other chains not shown): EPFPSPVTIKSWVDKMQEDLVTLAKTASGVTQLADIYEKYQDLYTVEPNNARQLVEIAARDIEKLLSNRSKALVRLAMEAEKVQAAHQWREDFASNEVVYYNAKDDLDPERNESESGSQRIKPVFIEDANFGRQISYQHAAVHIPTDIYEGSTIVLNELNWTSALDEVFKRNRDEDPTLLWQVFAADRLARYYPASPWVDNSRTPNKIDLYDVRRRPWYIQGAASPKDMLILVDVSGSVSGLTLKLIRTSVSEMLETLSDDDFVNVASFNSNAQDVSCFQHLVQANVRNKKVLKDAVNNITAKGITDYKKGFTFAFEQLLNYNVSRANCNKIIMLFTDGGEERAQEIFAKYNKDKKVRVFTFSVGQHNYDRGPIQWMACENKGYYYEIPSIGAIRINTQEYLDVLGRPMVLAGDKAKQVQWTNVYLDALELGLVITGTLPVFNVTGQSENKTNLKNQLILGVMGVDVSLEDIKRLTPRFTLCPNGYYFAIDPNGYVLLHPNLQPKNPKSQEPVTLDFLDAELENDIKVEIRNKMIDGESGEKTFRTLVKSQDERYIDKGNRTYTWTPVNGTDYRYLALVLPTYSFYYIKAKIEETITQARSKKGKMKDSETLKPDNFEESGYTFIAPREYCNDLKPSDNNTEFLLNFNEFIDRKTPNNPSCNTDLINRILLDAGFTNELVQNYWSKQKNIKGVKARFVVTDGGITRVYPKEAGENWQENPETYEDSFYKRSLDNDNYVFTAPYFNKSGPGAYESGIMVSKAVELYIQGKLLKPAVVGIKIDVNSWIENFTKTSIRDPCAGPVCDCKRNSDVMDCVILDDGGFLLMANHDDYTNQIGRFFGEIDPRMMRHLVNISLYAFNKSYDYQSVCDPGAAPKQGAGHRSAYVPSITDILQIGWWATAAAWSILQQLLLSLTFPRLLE
T1 sequence (P54290 945-1091 partner limits assumed, other chains not shown): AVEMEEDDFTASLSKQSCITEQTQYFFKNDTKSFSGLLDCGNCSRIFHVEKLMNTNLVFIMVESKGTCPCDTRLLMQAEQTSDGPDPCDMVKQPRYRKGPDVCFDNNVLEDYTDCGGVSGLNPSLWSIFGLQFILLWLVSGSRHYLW

Row | SMILES | Ki
1 | CCC1=C(C(N)=O)C(c2ccc([N+](=O)[O-])cc2)C(C(=O)NCCCN2CCC(C#N)(c3ccccc3)CC2)=C(CC)N1 (racemic) [(±)-102, 5-Carboxamido-3-{N-[(4-cyano-4-phenylpiperidin-1-ly)propyl]carboxamido-2,6-diethyl-1,4-dihydro-4-(4-nitrophenyl)pyridine hydrochloride hydrate] | 72.4 µM
2 | CCC1=C(C(N)=O)C(c2ccc([N+](=O)[O-])cc2)C(C(=O)NCCCN2CCC(C#N)(c3ccccc3)CC2)=C(CC)N1 (single isomer, unassigned; (-)) [(−)-102] | 0.55 µM
3 | COc1ccc(C2(c3ccccc3)CCN(CCCNC(=O)C3=C(C)NC(C)=C(C(N)=O)C3c3ccc([N+](=O)[O-])cc3)CC2)cc1 (centres unmarked) [Example 98, 5-Carboxamido-1,4-dihydro-3-{N-[3-(4-(4-methoxyphenyl)-4-phenylpiperidin-1-yl)propyl]}carboxamido-2,6-dimethyl-4-(4-nitrophenyl)pyridine hydrochloride] | 1000 µM
4 | CCC1=C(C(N)=O)C(c2ccc([N+](=O)[O-])cc2)C(C(=O)NCCCN2CCC(O)(c3ccccc3)CC2)=C(CC)N1 (centres unmarked) [Example 100, 5-Carboxamido-2,6-diethyl-1,4-dihydro-3-{N-(3-(4-hydroxy-4-phenylpiperidin-1-yl)propyl]}carboxamido-4-(4-nitrophenyl)pyridine hydrochloride hydrate] | 1000 µM
5 | CCC1=C(C(N)=O)C(c2ccc([N+](=O)[O-])cc2)C(C(=O)NCCCN2CCC(C)(c3ccccc3)CC2)=C(CC)N1 (centres unmarked) [Example 106, 5-Carboxamido-2,6-diethyl-1,4-dihydro-3-{N-[3-(4-Methyl-4-phenylpiperidin-1-yl)propyl]}carboxamido-4-(4-nitrophenyl)pyridine hydrochloride hydrate] | 1000 µM
6 | CCC1=C(C(N)=O)C(c2ccc([N+](=O)[O-])cc2)C(C(=O)NCCCN2CCN(c3ccccc3OC)CC2)=C(CC)N1 (centres unmarked) [Example 125, 5-Carboxamido-2,6-diethyl-1,4-dihydro-3-(N-{3-[4-(2-methoxyphenyl)piperazin-1-yl]propyl})carboxamido-4-(4-nitrophenyl)pyridine] | 38 µM
7 | CC1=C(C(=O)NCCCN2CCC(c3ccccc3)(c3ccccc3)CC2)C(c2ccc([N+](=O)[O-])cc2)C(C(=O)OCCC#N)=C(C)N1 (centres unmarked) [Example 160] | 15.5 µM

Same assay, conditions: [3H]nitrendipine, rat cardiac muscle membranes; SEM and n in lines below; read-out: pKi Ca (converted)

Row | SMILES | Ki
8 | CCC1=C(C(=O)NCCCN2CCC(c3ccccc3)(c3ccccc3)CC2)C(c2ccc([N+](=O)[O-])cc2)C(C(=O)OCc2ccccc2)=C(C)N1 (centres unmarked) [Example 4, 5-Benzyloxycarbonyl-2-ethyl-1,4-dihydro-6-methyl-4-(4-nitrophenyl)-3-(N-(3-(4,4-diphenylpiperidin-1-yl)propyl)carboxamido) pyridine, Hydrochloride Salt, Hydrate] | 0.977 µM
9 | COC(=O)C1=C(C)NC(C)=C(C(=O)NCCCN2CCC(c3ccccc3)(c3ccccc3)CC2)C1c1ccc([N+](=O)[O-])c(C)c1 (centres unmarked) [Example 28] | 17.4 µM
10 | COC(=O)C1=C(C)NC(c2ccoc2)=C(C(=O)NCCCN2CCC(c3ccccc3)(c3ccccc3)CC2)C1c1ccc([N+](=O)[O-])cc1 (centres unmarked) [Example 43, 2-(Furan-3-yl)-, 4-dihydro-5-methoxycarbonyl-6-methyl-4-(4-nitrophenyl)-3-(N-(3-(4,4-diphenylpiperidin-1-yl)propyl)carboxamidopyridine, hydrochloride salt] | 18.6 µM
11 | CC1=C(C(N)=O)C(c2ccc([N+](=O)[O-])cc2)C(C(=O)NCCN2CCC(c3ccccc3)(c3ccccc3)CC2)=C(C)N1 (centres unmarked) [Example 54, 5-Carboxamide-1,4-dihydro-2,6-dimethyl-4-(4-nitrophenyl)-3-{N-[2-(4,4-diphenylpiperidin-1-yl)ethyl]}carboxamidopyridine hydrochloride hydrate] | 58.9 µM

Same assay, conditions: pKi Ca

Row | SMILES | Ki
12 | COC(=O)C1=C(C)NC(C)=C(C(=O)NCCCN2CCC(c3ccccc3)(c3ccccc3)CC2)C1c1ccc(C(F)(F)F)cc1 (centres unmarked) [Example 1] | 6.61 µM
13 | COC(=O)C1=C(C)NC(C)=C(C(=O)NCCCN2CCC(c3ccccc3)(c3ccccc3)CC2)C1c1ccncc1 (centres unmarked) [Example 5, 1,4-Dihydro-5-methoxycarbonyl-2,6-dimethyl-3-(N-(3-(4,4-diphenylpiperidin-1-yl)propyl)carboxamido)-4-(4-pyridyl)pyridine] | 4.57 µM
14 | COC(=O)C1=C(C)NC(C)=C(C(=O)NCCCN2CCC(c3ccccc3)(c3ccccc3)CC2)C1C1CCCCC1 (centres unmarked) [Example 6] | 1.58 µM
15 | COC(=O)C1=C(C)NC(C)=C(C(=O)NCCCN2CCC(c3ccccc3)(c3ccccc3)CC2)C1c1ccc(-c2ccccc2)cc1 (centres unmarked) [Example 7] | 0.871 µM
16 | COC(=O)C1=C(C)NC(C)=C(C(=O)NCCCN2CCC(c3ccccc3)(c3ccccc3)CC2)C1c1ccc2ccccc2c1 (centres unmarked) [Example 22] | 0.372 µM
17 | CC1=C(C#N)C(c2ccc([N+](=O)[O-])cc2)C(C(=O)NCCCN2CCC(c3ccccc3)(c3ccccc3)CC2)=C(C)N1 (centres unmarked) [Example 37] | 1.35 µM
18 | COC(=O)C1=C(C)NC(C)=C(C(=O)N(C)CCCN2CCC(c3ccccc3)(c3ccccc3)CC2)C1c1ccc([N+](=O)[O-])cc1 (centres unmarked) [Example 46, hydrochloride hemihydrate] | 7.41 µM
19 | COC(=O)C1=C(C)NC(C)=C(C(=O)NCCN2CCC(c3ccccc3)(c3ccccc3)CC2)C1c1ccc([N+](=O)[O-])cc1 (centres unmarked) [Example 52, 1,4-Dihydro-3-methoxycarbonyl-2,6-dimethyl-4-(4-nitrophenyl)-5-{N-[2-(4,4-diphenylpiperidin-1-yl)ethyl]}carboxamidopyridine hydrochloride hemihydrate] | 5.13 µM
20 | COC(=O)C1=C(C)NC(c2ccccc2)=C(C(=O)NCCCN2CCC(c3ccccc3)(c3ccccc3)CC2)C1c1ccc([N+](=O)[O-])cc1 (centres unmarked) [Example 78, 1,4-Dihydro-5-methoxycarbonyl-6-methyl-4-(4-nitro)phenyl-2-phenyl-3-(N-(3-(4,4-diphenylpiperidin-1-yl)propyl))carboxamidopyridine hydrochloride hydrate] | 3.16 µM
21 | CCOC(=O)C1=C(CC(=O)NCCCN2CCC(c3ccccc3)(c3ccccc3)CC2)NC(C)=C(C(=O)OC)C1c1ccc([N+](=O)[O-])cc1 (centres unmarked) [Example 89, 3-Ethoxycarbonyl-1,4-dihydro-5-methoxycarbonyl-6-methyl-4-(4-nitro)phenyl-2-(N-(3-(4,4,-diphenylpiperidin-1-yl)propyl)carboxamido)methylpyridine, fumarate salt] | 0.813 µM
22 | COC(=O)C1=C(C)N(C)C(C)=C(C(=O)OCCCN2CCC(c3ccccc3)(c3ccccc3)CC2)C1c1ccc([N+](=O)[O-])cc1 (centres unmarked) [Example 92, 1,4-Dihydro-5-methoxycarbonyl-1,2,6-trimethyl-4-(4-nitrophenyl)-3-[3-(4,4-diphenylpiperidin-1-yl)propoxy]carbonylpyridine hydrochloride hydrate] | 4.17 µM
23 | CCC1=C(C(N)=O)C(c2ccc([N+](=O)[O-])cc2)C(C(=O)NCCCN2CCC(c3ccc(OC)cc3)(c3ccc(OC)cc3)CC2)=C(CC)N1 (centres unmarked) [Example 103, 5-Carboxamido-2,6-diethyl-1,4-dihydro-3-{N-[3-(4,4-bis-(4-methoxyphenyl)piperidin-1-yl)propyl]}carboxamido}-4-(4-nitrophenyl)pyridine hydrochloride] | 0.178 µM
24 | CCC1=C(C(N)=O)C(c2ccc([N+](=O)[O-])cc2)C(C(=O)NCCCN2CCC3(CC2)C(=O)NCN3c2ccccc2)=C(CC)N1 (centres unmarked) [Example 105, 5-Carboxamido-2,6-diethyl-1,4-dihydro-4-(4-nitrophenyl)-3-{N-[3-(1-phenyl-4-oxo-1,3,8-triazaspiro[4.3]decan-8-yl)propyl]}carboxamidopyridine hydrochloride hydrate] | 6.61 µM
25 | CCC1=C(C(=O)NCCCN2CCC(c3ccccc3)(c3ccccc3)CC2)C(c2ccc(N)cc2)C(C(=O)OC)=C(C)N1 (centres unmarked) [Example 114, 4-(4-Aminophenyl)-2-ethyl-1,4-dihydro-5-methoxycarbonyl-6-methyl-3-(N-(3-(4,4-diphenylpiperidin-1-yl)propyl)carboxamido)-pyridine] | 2.88 µM

Tested on: not given
Experiment: not given
Conditions: not given

Row | SMILES | melting point
26 | COC(=O)C1=C(C)NC(C)=C(C(=O)NCCCN2CCC(c3ccccc3)(c3ccccc3)CC2)C1c1ccc(C(F)(F)F)cc1 (centres unmarked) [Example 1] | 228 to 231 °C
27 | COC(=O)C1=C(C)NC(C)=C(C(=O)NCCCN2CCC(c3ccccc3)(c3ccccc3)CC2)C1c1ccncc1 (centres unmarked) [Example 5, 1,4-Dihydro-5-methoxycarbonyl-2,6-dimethyl-3-(N-(3-(4,4-diphenylpiperidin-1-yl)propyl)carboxamido)-4-(4-pyridyl)pyridine] | 224 to 226 °C (dec.)
28 | COC(=O)C1=C(C)NC(C)=C(C(=O)NCCCN2CCC(c3ccccc3)(c3ccccc3)CC2)C1C1CCCCC1 (centres unmarked) [Example 6] | 171 to 174 °C
29 | COC(=O)C1=C(C)NC(C)=C(C(=O)NCCCN2CCC(c3ccccc3)(c3ccccc3)CC2)C1c1ccc(-c2ccccc2)cc1 (centres unmarked) [Example 7] | 136 to 139 °C
30 | COC(=O)C1=C(C)NC(C)=C(C(=O)NCCCN2CCC(c3ccccc3)(c3ccccc3)CC2)C1c1cccnc1 (centres unmarked) [Example 14, 1,4-Dihydro-3-methoxycarbonyl-2.6-dimethyl-5-(N-(3-(4,4-diphenylpiperidin-1-yl)propyl)carboxamido)-4-(3-pyridyl)pyridine] | 244 to 247 °C (dec.)
31 | CCC1=C(C(N)=O)C(c2ccc([N+](=O)[O-])cc2)C(C(=O)NCCCN2CCC(c3ccccc3)(c3ccccc3)CC2)=C(C)N1 (centres unmarked) [Example 41, 3-Carboxamido-2-ethyl-1,4-dihydro-6-methyl-4-(4-nitrophenyl)-3-{N-[3-(4,4-diphenylpiperidin-1-yl)propyl]}carboxamidopyridine] | 120 to 124 °C
32 | CCC1=C(C(=O)NCCCN2CCC(c3ccccc3)(c3ccccc3)CC2)C(c2ccc([N+](=O)[O-])cc2)C(C(=O)OC(C)(C)C)=C(COCCN=[N+]=[N-])N1 (centres unmarked) [Example 139] | 62 to 67 °C
33 | CCC1=C(C(=O)OCCC#N)C(c2ccc([N+](=O)[O-])cc2)C(C(=O)NCCCN2CCC(c3ccccc3)(c3ccccc3)CC2)=C(COCCN=[N+]=[N-])N1 (centres unmarked) [Example 141] | 63 to 67 °C
34 | CCNC(=O)C1=C(COCCN=[N+]=[N-])NC(CC)=C(C(=O)NCCCN2CCC(c3ccccc3)(c3ccccc3)CC2)C1c1ccc([N+](=O)[O-])cc1 (centres unmarked) [Example 147, 2-((2-Azidoethyl)oxy)methyl-6-ethyl-3-(N-ethyl)carboxamido-1,4-dihydro-4-(4-nitro)phenyl-5-(N-(3-(4,4-diphenylpiperidin-1-yl-)propyl))carboxamidopyridine] | 83 to 87 °C
35 | CCC1=C(C(=O)NCCCN2CCC(c3ccccc3)(c3ccccc3)CC2)C(c2ccc([N+](=O)[O-])cc2)C(C(N)=O)=C(COCCN=[N+]=[N-])N1 (centres unmarked) [Example 149, 2-((2-Azidoethyl)oxy)methyl-3-carboxamido-6-ethyl-1,4-dihydro-4-(4-nitro) phenyl-5-(N-(3-(4,4-diphenylpiperidin-1-yl)propyl))carboxamidopyridine] | 87 to 91 °C
